Experimental data as given in patent publication US20190185896A1, “Stimulation of Regenerative Processes and Factors by Noble Gases” (NOBILIS THERAPEUTICS, INC., priority 2017, published 2019).

Tests used:
[1] = tested on: VEGF expression in fibroblasts; experiment: VEGF expression in fibroblasts in vitro (immunofluorescence staining, western blotting); format: cell-based; settings: 75% Argon+25% O2, 24 h after treatment
[2] = tested on: a SMA expression in fibroblasts; experiment: a-SMA expression in fibroblasts in vitro (immunofluorescence staining, western blotting); format: cell-based; settings: 75% Argon+25% O2, 10 ng/ml TGF, 72 h after treatment
Protocol: For in vitro fluorescence staining, cells were fixed in paraformaldehyde in 0.1 mol/l PBS solution. Cells were then incubated in 10% normal donkey serum in 0.1 mol/l PBS-Tween 20 and then incubated overnight with rabbit anti-angiopoietin-1 (1:200, Abcam), rabbit anti-TGF-β (1:200, Abcam), rabbit α-SMA (1:200, Abcam), followed by incubation with secondary antibody for 1 h. The slides were counterstained with nuclear dye DAPI and mounted with VECTASHIELD Mounting Medium (Vector Laboratories, Burlingame, Calif.). Sections were examined using an Olympus (Watford, UK) BX4 microscope.
HUVEC cell sample was stored in a −80° C. freezer until use. Cell samples were homogenized in ice-cold cell lysis buffer (20 mM Tris pH 7.5, 1% Triton X-100, 150 mM sodium chloride, 1% pyrophosphate, 1% betaglycophosphate, 1% NP-40, 0.1% SDS, 1 mM EDTA, 100 μg/ml phenylmethylsulfonyl fluoride, 1 μg/ml aprotinin). All homogenates were then centrifuged for 20 minutes at 15,000 rpm at 4° C. The supernatants were then extracted and protein quantification was carried out using a Bradford protein quantification assay kit (Bio-Rad, Hemel Hempstead, UK). […]
Membranes were then blocked in 5% non-fat powdered milk in TBST (50 mM Tris-HCl, 150 mM sodium chloride, 0.1% Tween 20, pH 7.4). […] Protein bands were then analyzed by densitometric quantification with Adobe PhotoShop (Adobe Systems, California, USA). […]

Angiopoietin 1 = Angiopoietin 1 staining of adult mouse cutaneous wounds; format: in vivo; settings: mouse cutaneous wounds, 3, 5, 8 day after wound, versus 75% N2
Description: (§1) To create the excisional wounds, adult mice were anesthetized and the dorsal skin was shaved, after sanitizing with 70% ethanol, 4 full-thickness excisional wounds were generated with a 4-mm sterile punch (stiefel laboratories, Research Triangel Park, N.C.). On the dorsal skin using 4-mm-diameter dermal biopsy punches through the two layers of skin (Miltex Inc.).
(§2) The perfusion fixed skin tissue was cryosectioned (thickness 30 μm) and mounted on Superfrost Plus glass slides for the process of immunostaining analysis. The sections were initially incubated by a solution of 0.3% hydrogen peroxide in methanol to quench endogenous peroxidase before being exposed to a blocking solution of 0.1M phosphate buffered saline (PBS) containing 0.3% Triton X-100 and 3% natural sheep serum (NSS). Following this process of blocking the sections were incubated overnight at […] with rat polyclonal angiopoietin 1, VEGF, CD34, TGF-β (Abcam, UK). […]
(§3) (A) Angiopoietin 1 staining of adult mouse cutaneous wounds. […] Right lane: the intensity of Angiopoietin 1 was quantified by densitometry and normalized by 75% N2 at 3 day (mean±S.D, n=10), * p<0.05. […] The intensity of VEGF was quantified by densitometry and normalized by 75% N2 at 3 day (mean±S.D, n=10), * p<0.05.

VEGF = VEGF staining of adult mouse cutaneous wounds; format: in vivo; settings: mouse cutaneous wounds, 3, 5, 8 day after wound, versus 75% N2
Description: as §1, §2, §3

CD34 = experiment: Anti-CD34 immunohistochemistry of skin wound samples (new vessels in the wound area); format: in vivo, mice; settings: mouse skin wound samples, versus Nitrogen
Description: as §1, §2
(§4) (A) Immunohistochemical analyses using anti-CD34 in skin wound samples from the mice treated with Nitrogen and Argon. […] The numbers of new vessels per a high-power microscopic field (×100) in 10 fields/a slide was counted. […] The intensity of TGFβ was quantified by densitometry and normalized by 75% N2 at 3 day (mean±S.D, n=10), * p<0.05.

TGF-β = experiment: TGFβ staining of adult mouse cutaneous wounds; format: in vivo; settings: mouse cutaneous wounds, 3, 5, 8 day after wound, versus 75% N2
Description: as §1, §2, §4

skin wound = experiment: Skin wound healing in mice (excisional wounds); format: in vivo; settings: 75% Argon versus 75% nitrogen
Description: as §1
A Macroscopic changes in skin wound site in a mice treated with 75% nitrogen or Argon. Day 0 picture was taken immediately after injury. Representative images from 2 individual animals in both groups are shown.

HUVECs = experiment: Cell migration scratch assay; format: cell-based; settings: 75% argon for 2 hours, 16 hours post-exposure
Protocol: The following was adopted from a previous published protocol (Liang et al., 2007) to study the influence of argon on migration of HUVECs. Prior to assay, HUVECs in EGM were re-suspended in incomplete LSGS medium and seeded onto pre-coated 12-well plates at a density of 2-3×10^5/well. The plates were incubated at 37° C. with 5% CO2 overnight for the cells to adhere to the gelatin surface as well as to create a confluent monolayer. Use of low serum condition is crucial as it ensures survival and attachment of cells while minimising their proliferation.
Once 100% confluence was reached, the monolayers were scraped using a sterile p1000 pipette tip along the middle to create a straight-line “scratch”. After cell debris was washed off, the wells were replenished with fresh incomplete-LSGS medium.
The plates were then exposed to normal air, 75% argon or 75% nitrogen for 2 hours. From 0 to 16 hours post-exposure, wells were examined every 4 hours. […] The cells were then fixed with 4% paraformaldehyde (Fischer, UK) for 8 minutes and stained with 0.1% crystal violet (Sigma-Aldrich, UK) for 10 minutes. Images were taken as described in the previous section.

[3] = tested on: cerebral cortical neurons; settings: 75% concentration, in vitro, regardless of presence or absence of OGD injury; cited from earlier work

## [Ar] [Argon, argon]
[1]
  VEGF expression in vitro: enhanced
[2]
  a-SMA expression in vitro: enhanced
Angiopoietin 1
  Angiopoietin 1 expression in vivo: enhanced
VEGF
  VEGF expression in vivo: enhanced
CD34
  CD34 in vivo (new vessels in the wound area): enhanced
TGF-β
  TGF-β in vivo: enhanced
Skin wound
  Skin wound healing: accelerated
HUVECs
  Scratch closure by migrating cells: completely closed
[3]
  Viability and proliferation of cerebral cortical neurons: potently enhanced
